Entries after “also recorded” stand apart in the source; their conditions may differ.
How the values were obtained:
[1] = tested on: Shank3^ΔC/ΔC mice; experiment: Marble burying (avoidance behavior); assay type: in vivo, mouse; details: 30 minutes, 20 marbles; TG003 treatment
Method: To assess avoidance behavior by marble burying, 20 black marbles were evenly distributed in rows in a novel home cage on top of 5 cm of fresh bedding and mice were left undisturbed for 30 minutes in the cage. The number of marbles to at least ⅔ depth were then recorded.

[2] = tested on: Shank3^ΔC/ΔC mice; experiment: Three-chamber social interaction task; assay type: in vivo, mouse
Method: The three-chamber social interaction task was performed in a three-chambered arena with transparent walls and retractable doorways to allow mice access to flanking chambers (FIG. 9F). During testing, the arena was placed in a lighted, sound-proof box with no side-biasing features. A video camera was mounted above for recording. The test comprised three phases with different stimuli placed in the side chambers successively between phases. Each stimulus (social or inanimate) was placed within a small wire cage for immobilization while test mice were allowed to freely investigate the stimuli. In Phase 1, identical inanimate objects (inverted ceramic cups with blue stripe) were placed in both side chambers. An intruder mouse (same strain) was introduced in one side chamber as the social stimulus in Phase 2. In Phase 3, a second intruder mouse was placed in the other side chamber (novel social stimulus). Each phase consisted of a 7.5 minute exploration period with 5 minutes in the home cage between phases. The test animal was placed in the center chamber to start the task. Animals were habituated to the arena 24 hours before testing during which time they were allowed to freely explore the entire arena, with empty wire cages in side chambers, for 10 minutes. Social interaction time for a given phase was scored by cumulative social/investigative behaviors, in particular sniffing and actively seeking a stimulus. Proximity to a stimulus without investigation was not counted. Preference index was calculated by subtracting interaction time with one stimulus from that of the other stimulus in the same testing phase then dividing this by the sum of interaction times for both stimuli and converting this to a percentage. Positive scores indicate a preference for the first stimulus in the equation. […]

[3] = tested on: CA1 neurons; experiment: mEPSC recordings from shRNA-expressing CA1 neurons in hippocampal organotypic slice cultures; assay type: cell-based, mouse; details: Shank3 knock down neurons; overnight 4 μg/ml SC79
Method: Organotypice slices and cell cultures were transferred from growth medium to an interface chamber containing ACSF equilibrated with 95% O2/5% CO2 containing the following (in mM): 124 NaCl, 2.7 KCl, 2 CaCl2, 1.3 MgCl2, 26 NaHCO3, 0.4 NaH2PO4, 18 glucose, 4 ascorbate. Recordings were performed with ACSF in a recording chamber at a temperature of 35° C. at a perfusion rate of 1-2 ml/min. Neurons were visually identified with infrared video microscopy using an upright microscope equipped with a 40× objective (Olympus, Tokyo, Japan). Patch electrodes (3-5 MΩ) were pulled from borosilicate glass tubing. […]
Whole cell patch-clamp recordings were excluded if the access resistance exceeded 13 MΩ and changed more than 20% during the recordings. Data were recorded with a MultiClamp 700B (Molecular Devices) amplifier, filtered at 0.2 kHz, and digitised at 10 kHz. Data were acquired and analysed with Clampex 10.0, Clampfit 10.0 (Molecular Devices) and the Mini Analysis Program (Synaptosoft, Decatur, Ga.). […]
Given that SC79 and TG003 were able to recover spine numbers in Shank3 knock down neurons, the reinstatement of synaptic transmission was examined next. First, miniature excitatory postsynaptic currents (mEPSCs) were recorded from shRNA-expressing CA1 neurons in hippocampal organotypic slice cultures. […]

Row | Structure (SMILES) | avoidance behavior, marble burying [1] | total distance travelled ([2]; phase 1 or phase 2, TG003-treated mice) | preference for social interaction (S1 versus O1 interaction times) ([2]; phase 2, 30 mg/kg TG003 i.p. 6-8 hours before testing, 30 mg/kg) | social investigation after delay ([2]; phase 2, 72 hours after TG003 treatment) | time spent in S1 chamber ([2]; phase 2, TG003-treated Shank3^ΔC/ΔC mice) | mEPSC frequency [3]
1 | CCN1/C(=C/C(C)=O)Sc2ccc(OC)cc21 [TG003, (Z)-1-(3-ethyl-5-methoxy-2,3-dihydrobenzothiazol-2-ylidene)propan-2-one] | refractory to treatment with TG003 | no change from wild type in total distance travelled | recovered normal preference for social interaction; also recorded: corrected | maintained 72 hours after treatment | restores the time spent in the Si chamber to wild type levels | 
2 | CCOC(=O)C1=C(N)Oc2ccc(Cl)cc2C1C(C#N)C(=O)OCC (stereo not drawn) [SC79] |  |  |  |  |  | completely restored mEPSC frequency to control levels

Source: patent US20180296537A1, “METHODS AND COMPOSITIONS FOR DIAGNOSING, TREATING, AND MONITORING TREATMENT OF SHANK3 DEFICIENCY ASSOCIATED DISORDERS” (Novartis AG, priority 2015, published 2018)
